Data taken from patent US20060040937A1, “N-aroyl cyclic amines as orexin receptor antagonists” (Glaxo Group Limited, priority 2002, published 2006).
Ends that are not written are not given here.

Experiments:
[1] = tested on: rat; test: Rat sleep/EEG studies; format: in vivo; conditions: central administration at the onset of the normal sleep period
Excerpt: Therefore antagonists of its receptor may be useful in the treatment of sleep disorders including insomnia.

[2] = tested on: freely-feeding rats; conditions: central administration, 4 hour time period; cited from earlier work

For “orexin-A: peptide ligand for the orexin-1 receptor, an agonist of the orexin receptors; amino acid sequence printed in b97-b99 (QPLPDCCRQKTCSCRLYELLHGAGNHAAGILTL; ends and bridges not checked; cysteine pairing not given here; UniProt O43612 34-66, looked up)”, the “effect on arousal (sleep/EEG)” value [1] is listed as “dose-related increase in arousal” and the “increase in food intake over control rats receiving vehicle” value [2] is listed as “approximately four-fold”.
